Measured values from patent US20230382915A1, “GCN2 AND PERK KINASE INHIBITORS AND METHODS OF USE THEREOF” (Deciphera Pharmaceuticals, LLC, priority 2021, published 2023).
pIC50: −log10 of the molar value.

Assays:
Format in all cases: cell-based
[1] = tested on: phospho-GCN2 (Thr899) in HCT116 colorectal cancer cells; experiment: HCT116 amino acid starved (-AA) phospho-GCN2 Western blot; conditions: Homo sapiens, HCT-116, 4 h, read-out: HCT116 -AA pGCN2 Western Blot
Protocol: HCT116 colorectal cancer cells (catalog #CCL-247) were obtained from the American Type Culture Collect (ATTC, Manassas, VA). Briefly, cells were grown in RPMI 1640 supplemented with 10% heat inactivated fetal bovine serum (Invitrogen, Carlsbad, CA) and 1% Penicillin/Streptomycin/L-Glutamine at 37° C., 5% CO2, and 95% humidity. Cells were expanded until reaching 70-95% confluency at which point they were subcultured or harvested for assay use. Cells were seeded in 12-well culture plate at five hundred thousand cells per well in 1 mL complete growth medium and incubated overnight at 37° C., 5% CO2, and 95% humidity. The next day each well was replaced with 1 mL Earle's Balanced Salt Solution (EBSS, Invitrogen, Carlsbad, CA) supplemented with 10% Dialyzed Fetal Bovine Serum, 5.5 mM Glucose, 1% Penicillin/Streptomycin and 1% Vitamin solution (thermo #11120052). A serial dilution of test compound was dispensed into well. Plates were incubated for 4 h at 37° C., 5% CO2, and 95% humidity. […] Western blot was performed on each lysate to quantify phospho-GCN2 (Thr899), total GCN2, ATF4 and beta-Actin. […] Data were analyzed using GraphPad Prism software (GraphPad, San Diego, CA) to calculate IC50 values.

[2] = tested on: RPMI8226 Multiple Myeloma cells; experiment: Cell proliferation, combination with standard of care, RPMI8226; conditions: Homo sapiens, RPMI-8226; with 333 nM dexamethasone, 96 h, FIG. 6A; read-out: inhibition of cell proliferation IC50, combination treatment
Protocol: H929, RPMI8226, GA-10 and DoHH-2 cells (catalog #CRL-9068) were obtained from the American Type Culture Collection (ATTC, Manassas, VA). H929 Cells were maintained in RPMI-1640 medium supplemented with 20% heat-inactivated fetal bovine serum (catalog #A3840002, ThermoFisher Scientific, Waltham, MA), 1% Penicillin/Streptomycin/L-Glutamine (catalog #10378016, ThermoFisher Scientific, Waltham, MA), and 0.05 mM 2-mercaptoethanol (catalog #21985-023, ThermoFisher Scientific, Waltham, MA). […]
For cell proliferation assay appropriate number of cells (Forty thousand cells for H929. Twenty thousand cells for RPMI8226 and GA-10. Eight thousand cells for DoHH-2) were seeded per well in 200 μL in respective medium were dispensed into a 96-well black clear bottom plate. […] Plates were read on a Synergy2 or equivalent reader (Biotek, Winooski VT) using an excitation of 540 nm and an emission of 600 nm. At the end of the incubation of DoHH-2, cell viability was determined using CellTiter-Glo® assay (Promega, Madison, WI). Luminescence was measured using EnVision MultiLabel Reader (PerkinElmer, Waltham, MA). Data was analyzed using GraphPad Prism software (GraphPad, San Diego, CA) to calculate IC50 values.

H2030 spheroids = experiment: Spheroid Western blot assay, H2030
Protocol: (§1) NSCLC cell lines H358 (catalog #CRL-5807) and H2030 (catalog #CRL-5914), and fibrosarcoma cell line HT-1080 (catalog […]) were obtained from the American Type Culture Collect (ATTC, Manassas, VA). Cells were grown in RPMI-1640 medium supplemented with 10% heat-inactivated fetal bovine serum and 1% Penicillin/Streptomycin/L-Glutamine (Invitrogen, Carlsbad, CA) at 37° C., 5% CO2, and 95% humidity and maintained at 50-80% confluency until use. Cells were plated at 500,000 cells/well in 24-well Elplasia plates (Corning, Glendale, AZ) with complete growth media at 1 mL/well and incubated overnight at 37° C., 5% CO2, and 95% humidity to form spheroids. The next day, serial dilutions of test compounds were prepared in complete growth media and 500 μL existing media was removed from each well and replaced with fresh media containing compound titers. Spheroids were then incubated with test compounds for 4 hours or 24 hours under the same conditions. […] Western blots were performed to quantify phospho-GCN2 (R&D Systems, Minneapolis, MN), ATF4, CHOP, cleaved PARP, cleaved Caspase 3 and 7, and beta-Actin (Cell Signaling Technology, Danvers, MA). […]

H358 spheroids = experiment: Spheroid Western blot assay, H358
Protocol: as §1

## Cn1cc(-c2cccc(NS(=O)(=O)c3cc(Cl)cc(CO)c3Cl)c2F)c2c(N)ncnc21 [Example 2, N-(3-(4-amino-7-methyl-7H-pyrrolo[2,3-d]pyrimidin-5-yl)-2-fluorophenyl)-2,5-dichloro-3-(hydroxymethyl)benzenesulfonamide]
[1]
  pIC50: ≥ 7.00
[2]
  pIC50: 8.15
H2030 spheroids
  upregulation of ATF4 (Western blot quantification): up to 20 fold
H358 spheroids
  upregulation of ATF4 (Western blot quantification): ≤ 12 fold
